Like-named read-outs stand apart in the source and are kept apart here.

Among the data in US9113629B2, “4-amino-6-(4-substituted-phenyl)-picolinates and 6-amino-2-(4-substituted-phenyl)-pyrimidine-4-carboxylates and their use as herbicides” (DOW AGROSCIENCES LLC, priority 2013, dated 2015) are pest or weed control and melting point values, retold here.

Data set [1] has as its system Key Broadleaf Weed and Crop Species. The experiment in a line: Post-emergent Test II herbicidal activity (Table 5). The class given is in vivo. To be noted: post-emergence, 336 h, 14 days after application. The method, boiled down: (§1)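 Greenhouse post-emergent assay: seedlings (first/second true leaf) in Metro-Mix 360 were sprayed at 187 L/ha at a top rate plus twofold dilutions down to 1/16×; solvent-blank controls were included. Percent visual injury was read at 14 d.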

The subject of data set [2] is Key Grass and Sedge Weeds as well as Grass Crops. Description: Post-emergent Test II herbicidal activity (Table 6). In kind it is in vivo. To be noted: post-emergence, 336 h; for pest or weed control at 140 g/ha: application rate 140 g ai/ha; for pest or weed control at 70 g/ha: application rate 70 g ai/ha. In a few lines: as §1
[3] abbreviates: ABUTH: velvetleaf (Abutilon theophrasti), 140 g ai/ha, post-emergent, read-out: Visual Growth Reduction (%) 14 Days After Application ABUTH.
[4] abbreviates: BRSNN: oilseed-rape, canola (Brassica napus), 140 g ai/ha, post-emergent, read-out: Visual Growth Reduction (%) 14 Days After Application BRSNN.
The mark [5] stands for this setting: CHEAL: lambsquarters (Chenopodium album), 140 g ai/ha, post-emergent, read-out: Visual Growth Reduction (%) 14 Days After Application CHEAL.
[6] abbreviates: EPHHL: wild poinsettia (Euphorbia heterophylla), 140 g ai/ha, post-emergent, read-out: Visual Growth Reduction (%) 14 Days After Application EPHHL.
Where [7] appears, read: HELAN: sunflower (Helianthus annuus), 140 g ai/ha, post-emergent, read-out: Visual Growth Reduction (%) 14 Days After Application HELAN.
[8] abbreviates: VIOTR: wild pansy (Viola tricolor), 140 g ai/ha, post-emergent, read-out: Visual Growth Reduction (%) 14 Days After Application VIOTR.
The mark [9] stands for this setting: Triticum aestivum, TRZSS (wheat), read-out: Visual Growth Reduction (%) 14 Days After Application, TRZSS.
Setting [10] is: CYPES: yellow nutsedge (Cyperus esculentus), read-out: Visual Growth Reduction (%) 14 Days After Application, CYPES.
The mark [11] stands for this setting: DIGSA: crabgrass (Digitaria sanguinalis), read-out: Visual Growth Reduction (%) 14 Days After Application, DIGSA.
Setting [12] is: ECHCG: barnyardgrass (Echinochloa crus-galli), read-out: Visual Growth Reduction (%) 14 Days After Application, ECHCG.
The mark [13] stands for this setting: ORYSA: rice (Oryza sativa), read-out: Visual Growth Reduction (%) 14 Days After Application, ORYSA.
Setting [14] is: SETFA: giant foxtail (Setaria faberi), read-out: Visual Growth Reduction (%) 14 Days After Application, SETFA.
Setting [15] is: SORVU: grain sorghum (Sorghum vulgare), read-out: Visual Growth Reduction (%) 14 Days After Application, SORVU.
[16] abbreviates: ZEAMX: maize, corn (Zea mays), read-out: Visual Growth Reduction (%) 14 Days After Application, ZEAMX.
Where [17] appears, read: TRZSS (wheat, Triticum aestivum), read-out: Visual Growth Reduction (%) 14 Days After Application, TRZSS.

In general, melting point refers to the temperature, or range, at which the solid turns liquid. `COC(=O)c1nc(-c2ccc(C#N)cc2)nc(N)c1OC` [Compound 130] showed a melting point of 185.1 to 186.9 °C. Also, the pest or weed control at 140 g/ha in data set [1] (setting [3]) lay within 0 to 29%. In addition, the pest or weed control at 140 g/ha in data set [1] (AMARE: redroot pigweed (Amaranthus retroflexus), 140 g ai/ha, post-emergent, read-out: Visual Growth Reduction (%) 14 Days After Application AMARE) was in the range of 0 to 29%. Also, the pest or weed control at 140 g/ha in data set [1] (setting [4]) was in the range of 0 to 29%. Further, in data set [1] (setting [5]), the pest or weed control at 140 g/ha was in the range of 0 to 29%. In data set [1] (setting [6]), the pest or weed control at 140 g/ha was 95 to 100%. In addition, the pest or weed control at 140 g/ha in data set [1] (setting [7]) was in the range of 85 to 94%. Besides, the pest or weed control at 140 g/ha in data set [1] (setting [8]) fell in the range of 0 to 29%. In addition, the pest or weed control at 140 g/ha in data set [2] (setting [9]) was 0 to 29%. Moreover, the pest or weed control at 140 g/ha in data set [2] (setting [10]) is 0 to 29%. Moreover, the pest or weed control at 140 g/ha in data set [2] (setting [11]) was 0 to 29%. The pest or weed control at 140 g/ha in data set [2] (setting [12]) was in the range of 0 to 29%. For the same molecule, the pest or weed control at 140 g/ha in data set [2] (setting [13]) lay in the range of 0 to 29%. Further, in data set [2] (setting [14]), the pest or weed control at 140 g/ha lay within 0 to 29%. Moreover, the pest or weed control at 140 g/ha in data set [2] (setting [15]) was in the range of 0 to 29%. The pest or weed control at 140 g/ha in data set [2] (setting [16]) lay within 0 to 29%.
`Nc1c(F)c(-c2ccc(OC(F)F)cc2F)nc(C(=O)O)c1Cl` [Compound 140]: the melting point lay in the range of 149 to 151 °C. In addition, the pest or weed control at 70 g/ha in data set [1] (ABUTH: velvetleaf (Abutilon theophrasti), application rate 70 g ai/ha, read-out: Visual Growth Reduction (%) 14 Days After Application, ABUTH) fell in the range of 0 to 29%. Moreover, the pest or weed control at 140 g/ha in data set [1] (ABUTH: velvetleaf (Abutilon theophrasti), application rate 140 g ai/ha, read-out: Visual Growth Reduction (%) 14 Days After Application, ABUTH) is 0 to 29%. Moreover, in data set [1] (AMARE: redroot pigweed (Amaranthus retroflexus), application rate 70 g ai/ha, read-out: Visual Growth Reduction (%) 14 Days After Application, AMARE), the pest or weed control at 70 g/ha was 0 to 29%. Further, in data set [1] (AMARE: redroot pigweed (Amaranthus retroflexus), application rate 140 g ai/ha, read-out: Visual Growth Reduction (%) 14 Days After Application, AMARE), the pest or weed control at 140 g/ha fell in the range of 0 to 29%. For the same molecule, the pest or weed control at 70 g/ha in data set [1] (BRSNN: oilseed-rape, canola (Brassica napus), application rate 70 g ai/ha, read-out: Visual Growth Reduction (%) 14 Days After Application, BRSNN) is 0 to 29%. Also, the pest or weed control at 140 g/ha in data set [1] (BRSNN: oilseed-rape, canola (Brassica napus), application rate 140 g ai/ha, read-out: Visual Growth Reduction (%) 14 Days After Application, BRSNN) is 0 to 29%. In data set [1] (CHEAL: lambsquarters (Chenopodium album), application rate 70 g ai/ha, read-out: Visual Growth Reduction (%) 14 Days After Application, CHEAL), the pest or weed control at 70 g/ha was 0 to 29%. Further, in data set [1] (CHEAL: lambsquarters (Chenopodium album), application rate 140 g ai/ha, read-out: Visual Growth Reduction (%) 14 Days After Application, CHEAL), the pest or weed control at 140 g/ha is 0 to 29%. For the same molecule, the pest or weed control at 70 g/ha in data set [1] (EPHHL: wild poinsettia (Euphorbia heterophylla), application rate 70 g ai/ha, read-out: Visual Growth Reduction (%) 14 Days After Application, EPHHL) was in the range of 85 to 94%. In addition, the pest or weed control at 140 g/ha in data set [1] (EPHHL: wild poinsettia (Euphorbia heterophylla), application rate 140 g ai/ha, read-out: Visual Growth Reduction (%) 14 Days After Application, EPHHL) was 85 to 94%. In addition, in data set [1] (HELAN: sunflower (Helianthus annuus), application rate 70 g ai/ha, read-out: Visual Growth Reduction (%) 14 Days After Application, HELAN), the pest or weed control at 70 g/ha lay in the range of 60 to 74%. Further, in data set [1] (HELAN: sunflower (Helianthus annuus), application rate 140 g ai/ha, read-out: Visual Growth Reduction (%) 14 Days After Application, HELAN), the pest or weed control at 140 g/ha was in the range of 75 to 84%. In addition, in data set [1] (VIOTR: wild pansy (Viola tricolor), application rate 70 g ai/ha, read-out: Visual Growth Reduction (%) 14 Days After Application, VIOTR), the pest or weed control at 70 g/ha fell in the range of 0 to 29%. In data set [1] (VIOTR: wild pansy (Viola tricolor), application rate 140 g ai/ha, read-out: Visual Growth Reduction (%) 14 Days After Application, VIOTR), the pest or weed control at 140 g/ha lay in the range of 0 to 29%. In data set [2] (setting [9]), the pest or weed control at 70 g/ha fell in the range of 0 to 29% and the pest or weed control at 140 g/ha was 0 to 29%. Further, in data set [2] (setting [10]), the pest or weed control at 70 g/ha fell in the range of 0 to 29% and the pest or weed control at 140 g/ha was 0 to 29%. In addition, in data set [2] (setting [11]), the pest or weed control at 70 g/ha is 0 to 29% and the pest or weed control at 140 g/ha is 0 to 29%. In data set [2] (setting [13]), the pest or weed control at 70 g/ha lay in the range of 0 to 29% and the pest or weed control at 140 g/ha fell in the range of 0 to 29%. In data set [2] (setting [15]), the pest or weed control at 70 g/ha was 0 to 29% and the pest or weed control at 140 g/ha is 0 to 29%. Besides, in data set [2] (setting [16]), the pest or weed control at 70 g/ha lay within 0 to 29% and the pest or weed control at 140 g/ha fell in the range of 0 to 29%.
For `C#Cc1ccc(-c2nc(C(=O)OC)c(Cl)c(N)c2C)cc1F` [Compound 151, methyl 4-amino-3-chloro-6-(4-ethynyl-3-fluorophenyl)-5-methylpicolinate], the melting point was in the range of 130 to 132 °C. In data set [1] (ABUTH: velvetleaf (Abutilon theophrasti), 70 g ai/ha, post-emergent, read-out: Visual Growth Reduction (%) 14 Days After Application ABUTH), the pest or weed control at 70 g/ha was 95 to 100%. For the same molecule, the pest or weed control at 140 g/ha in data set [1] (setting [3]) was in the range of 95 to 100%. In addition, in data set [1] (BRSNN: oilseed-rape, canola (Brassica napus), 70 g ai/ha, post-emergent, read-out: Visual Growth Reduction (%) 14 Days After Application BRSNN), the pest or weed control at 70 g/ha lay in the range of 75 to 84%. Moreover, in data set [1] (setting [4]), the pest or weed control at 140 g/ha was 85 to 94%. The pest or weed control at 70 g/ha in data set [1] (CHEAL: lambsquarters (Chenopodium album), 70 g ai/ha, post-emergent, read-out: Visual Growth Reduction (%) 14 Days After Application CHEAL) lay in the range of 95 to 100%. The pest or weed control at 140 g/ha in data set [1] (setting [5]) fell in the range of 95 to 100%. Besides, the pest or weed control at 70 g/ha in data set [1] (EPHHL: wild poinsettia (Euphorbia heterophylla), 70 g ai/ha, post-emergent, read-out: Visual Growth Reduction (%) 14 Days After Application EPHHL) was in the range of 0 to 29%. For the same molecule, the pest or weed control at 140 g/ha in data set [1] (setting [6]) lay within 0 to 29%. Further, in data set [1] (HELAN: sunflower (Helianthus annuus), 70 g ai/ha, post-emergent, read-out: Visual Growth Reduction (%) 14 Days After Application HELAN), the pest or weed control at 70 g/ha was 85 to 94%. Also, the pest or weed control at 140 g/ha in data set [1] (setting [7]) lay in the range of 85 to 94%. The pest or weed control at 70 g/ha in data set [1] (VIOTR: wild pansy (Viola tricolor), 70 g ai/ha, post-emergent, read-out: Visual Growth Reduction (%) 14 Days After Application VIOTR) fell in the range of 0 to 29%. Further, the pest or weed control at 140 g/ha in data set [1] (setting [8]) fell in the range of 0 to 29%. In data set [2] (setting [10]), the pest or weed control at 70 g/ha was in the range of 0 to 29% and the pest or weed control at 140 g/ha was 75 to 84%. In data set [2] (setting [11]), the pest or weed control at 70 g/ha lay within 0 to 29% and the pest or weed control at 140 g/ha is 0 to 29%. Further, in data set [2] (setting [12]), the pest or weed control at 70 g/ha is 0 to 29% and the pest or weed control at 140 g/ha is 45 to 59%. Also, in data set [2] (setting [13]), the pest or weed control at 70 g/ha fell in the range of 0 to 29% and the pest or weed control at 140 g/ha was 0 to 29%. In data set [2] (setting [14]), the pest or weed control at 70 g/ha was in the range of 0 to 29% and the pest or weed control at 140 g/ha was in the range of 60 to 74%. In data set [2] (setting [15]), the pest or weed control at 70 g/ha lay in the range of 60 to 74% and the pest or weed control at 140 g/ha is 60 to 74%. In addition, in data set [2] (setting [17]), the pest or weed control at 70 g/ha lay within 0 to 29% and the pest or weed control at 140 g/ha lay in the range of 0 to 29%. In data set [2] (setting [16]), the pest or weed control at 70 g/ha fell in the range of 60 to 74% and the pest or weed control at 140 g/ha was 75 to 84%.
